Key:
[1] = tested on: K-562; test: NCI human tumor cell panel: K-562 (Leukemia); format: cell-based; settings: K562, K-562, Leukemia
[2] = tested on: MOLT-4; test: NCI human tumor cell panel: MOLT-4 (Leukemia); format: cell-based; settings: MOLT-4, Leukemia
[3] = tested on: SR; test: NCI human tumor cell panel: SR (Leukemia); format: cell-based; settings: Leukemia
[4] = tested on: A549/ATCC; test: NCI human tumor cell panel: A549/ATCC (Non-Small Cell Lung Cancer); format: cell-based; settings: Non-Small Cell Lung Cancer
[5] = tested on: EKVX; test: NCI human tumor cell panel: EKVX (Non-Small Cell Lung Cancer); format: cell-based; settings: Non-Small Cell Lung Cancer
[6] = tested on: HOP-62; test: NCI human tumor cell panel: HOP-62 (Non-Small Cell Lung Cancer); format: cell-based; settings: HOP-62, Non-Small Cell Lung Cancer
[7] = tested on: NCI-H23; test: NCI human tumor cell panel: NCI-H23 (Non-Small Cell Lung Cancer); format: cell-based; settings: NCI-H23, Non-Small Cell Lung Cancer
[8] = tested on: NCI-H460; test: NCI human tumor cell panel: NCI-H460 (Non-Small Cell Lung Cancer); format: cell-based; settings: NCI-H460, Non-Small Cell Lung Cancer
[9] = tested on: HCT-116; test: NCI human tumor cell panel: HCT-116 (Colon Cancer); format: cell-based; settings: HCT-116, Colon Cancer
[10] = tested on: HCT-15; test: NCI human tumor cell panel: HCT-15 (Colon Cancer); format: cell-based; settings: HCT-15, Colon Cancer, read-out: Log10 GI50 (converted)
[11] = tested on: HT29; test: NCI human tumor cell panel: HT29 (Colon Cancer); format: cell-based; settings: HT-29, HT29, Colon Cancer
[12] = tested on: KM12; test: NCI human tumor cell panel: KM12 (Colon Cancer); format: cell-based; settings: KM12, Colon Cancer
[13] = tested on: SW-620; test: NCI human tumor cell panel: SW-620 (Colon Cancer); format: cell-based; settings: SW-620, Colon Cancer
[14] = tested on: SF-295; test: NCI human tumor cell panel: SF-295 (CNS Cancer); format: cell-based; settings: SF-295, CNS Cancer
[15] = tested on: SNB-75; test: NCI human tumor cell panel: SNB-75 (CNS Cancer); format: cell-based; settings: SNB-75, CNS Cancer
[16] = tested on: LOX IMVI; test: NCI human tumor cell panel: LOX IMVI (Melanoma); format: cell-based; settings: Melanoma
[17] = tested on: MALME-3M; test: NCI human tumor cell panel: MALME-3M (Melanoma); format: cell-based; settings: MALME-3M, Melanoma
[18] = tested on: UACC-257; test: NCI human tumor cell panel: UACC-257 (Melanoma); format: cell-based; settings: UACC-257, Melanoma
[19] = tested on: UACC-62; test: NCI human tumor cell panel: UACC-62 (Melanoma); format: cell-based; settings: UACC-62, Melanoma
[20] = tested on: IGROV1; test: NCI human tumor cell panel: IGROV1 (Ovarian Cancer); format: cell-based; settings: IGROV-1, IGROV1, Ovarian Cancer
[21] = tested on: OVCAR-4; test: NCI human tumor cell panel: OVCAR-4 (Ovarian Cancer); format: cell-based; settings: OVCAR-4, Ovarian Cancer
[22] = tested on: OVCAR-5; test: NCI human tumor cell panel: OVCAR-5 (Ovarian Cancer); format: cell-based; settings: OVCAR-5, Ovarian Cancer
[23] = tested on: OVCAR-8; test: NCI human tumor cell panel: OVCAR-8 (Ovarian Cancer); format: cell-based; settings: OVCAR-8, Ovarian Cancer
[24] = tested on: 786-0; test: NCI human tumor cell panel: 786-0 (Renal Cancer); format: cell-based; settings: 786-0, Renal Cancer
[25] = tested on: A498; test: NCI human tumor cell panel: A498 (Renal Cancer); format: cell-based; settings: A498, Renal Cancer
[26] = tested on: ACHN; test: NCI human tumor cell panel: ACHN (Renal Cancer); format: cell-based; settings: Renal Cancer
[27] = tested on: SN12C; test: NCI human tumor cell panel: SN12C (Renal Cancer); format: cell-based; settings: Renal Cancer
[28] = tested on: TK-10; test: NCI human tumor cell panel: TK-10 (Renal Cancer); format: cell-based; settings: TK-10, Renal Cancer
[29] = tested on: PC-3; test: NCI human tumor cell panel: PC-3 (Prostate Cancer); format: cell-based; settings: PC-3, Prostate Cancer
[30] = tested on: MCF7/ADR-RES; test: NCI human tumor cell panel: MCF7/ADR-RES (Breast Cancer); format: cell-based; settings: Breast Cancer
[31] = tested on: HS 578T; test: NCI human tumor cell panel: HS 578T (Breast Cancer); format: cell-based; settings: Breast Cancer
[32] = tested on: BT-549; test: NCI human tumor cell panel: BT-549 (Breast Cancer); format: cell-based; settings: BT-549, Breast Cancer
[33] = tested on: HOP-92; test: NCI human tumor cell panel: HOP-92 (Non-Small Cell Lung Cancer)
[34] = read-out: Log10 GI50 (converted)
[35] = read-out: Log10 TGI (converted)

OCc1ccc(-c2ccc(-c3cccs3)[se]2)s1 [NSC 675344]
GI50 [1, 34]: 0.0437 µM
IC (TGI) [1, 35]: > 100 µM
GI50 [2, 34]: > 100 µM
IC (TGI) [2, 35]: > 100 µM
GI50 [3, 34]: > 100 µM
IC (TGI) [3, 35]: > 100 µM
GI50 [4, 34]: 45.7 µM
IC (TGI) [4, 35]: > 100 µM
GI50 [5, 34]: > 100 µM
IC (TGI) [5, 35]: > 100 µM
GI50 [6, 34]: 34.7 µM
IC (TGI) [6, 35]: > 100 µM
GI50 [7, 34]: 20.4 µM
IC (TGI) [7, 35]: > 100 µM
GI50 [8, 34]: < 0.01 µM
IC (TGI) [8, 35]: > 100 µM
GI50 [9, 34]: < 0.01 µM
IC (TGI) [9, 35]: 0.0417 µM
GI50 [10]: 0.0257 µM
GI50 [11, 34]: > 100 µM
IC (TGI) [11, 35]: > 100 µM
GI50 [12, 34]: > 100 µM
IC (TGI) [12, 35]: > 100 µM
GI50 [13, 34]: > 100 µM
IC (TGI) [13, 35]: > 100 µM
GI50 [14, 34]: 26.9 µM
IC (TGI) [14, 35]: > 100 µM
GI50 [15, 34]: 16.6 µM
IC (TGI) [15, 35]: 49 µM
GI50 [16, 34]: 34.7 µM
IC (TGI) [16, 35]: > 100 µM
GI50 [17, 34]: > 100 µM
IC (TGI) [17, 35]: > 100 µM
GI50 [18, 34]: < 0.01 µM
IC (TGI) [18, 35]: 0.0186 µM
GI50 [19, 34]: < 0.01 µM
IC (TGI) [19, 35]: 0.0141 µM
GI50 [20, 34]: 0.0123 µM
IC (TGI) [20, 35]: 0.0427 µM
GI50 [21, 34]: 0.0417 µM
IC (TGI) [21, 35]: > 100 µM
GI50 [22, 34]: < 0.01 µM
IC (TGI) [22, 35]: 0.0871 µM
GI50 [23, 34]: > 100 µM
IC (TGI) [23, 35]: > 100 µM
GI50 [24, 34]: 12.3 µM
IC (TGI) [24, 35]: 67.6 µM
GI50 [25, 34]: < 0.01 µM
IC (TGI) [25, 35]: 0.0182 µM
GI50 [26, 34]: 12.9 µM
IC (TGI) [26, 35]: 83.2 µM
GI50 [27, 34]: > 100 µM
IC (TGI) [27, 35]: > 100 µM
GI50 [28, 34]: < 0.01 µM
IC (TGI) [28, 35]: 0.0501 µM
GI50 [29, 34]: > 100 µM
IC (TGI) [29, 35]: > 100 µM
GI50 [30, 34]: > 100 µM
IC (TGI) [30, 35]: > 100 µM
GI50 [31, 34]: 53.7 µM
IC (TGI) [31, 35]: > 100 µM
GI50 [32, 34]: 42.7 µM
IC (TGI) [32, 35]: > 100 µM
GI50 ([33]; HOP-92, read-out: Log10 GI50 (converted)): 27.5 µM
IC (TGI) ([33]; HOP-92, read-out: Log10 TGI): 89.1 µM

Source: US20040063662A1, “Selenophene anti-tumor agents” (priority 1996, published 2004)
